Assays:
human CYP3A4 = human CYP3A4 (Homo sapiens (Human), UniProt P08684); test: Inhibitory effect on CYP3A4; format: in vitro ADME; conditions: 30-minute pre-incubation, Luciferin-IPA substrate; read-out: IC50 (μM), CYP3A4 inhibition
Experimental: Inhibitory Effect on CYP3A4
Enzyme reaction was performed by incubating in a potassium phosphate buffer solution (pH 7.4) containing 1 nM to 20 μM test compound, 3.2 mM magnesium chloride, 0.2 pmol human CYP3A4 (BD Biosciences), 0.5 mM reduced nicotinamide adenine dinucleotide phosphate (NADPH) and 3 μM Luciferin-IPA (Promega) at 37° C. for 10 minutes. The volume of the reaction solution was 50 μL/well. The 30-minute pre-incubation group was incubated at 37° C. for 30 minutes before adding tire substrate, the Luciferin-IPA solution (12.5 μL/well). At the end of the enzyme reaction, 50 μL/well of a Luciferin detection reagent (Promega) was added to the wells, and the plate was left at room temperature for 20 minutes. Then, the emission intensities were measured with Infinite M1000 (TECAN). The enzyme activities (%) relative to the value of the group to which the test compound was not added were calculated.

NK1 receptor = NK1 receptor (Meriones unguiculatus (Mongolian jird) (Gerbillus unguiculatus), UniProt Q5DUB1); test: Effect on foot-tapping induced by NK1 receptor agonist GR73632; format: in vivo; conditions: male gerbil, 0.1 mg/kg iv, GR73632 after four hours
Chain of NK1 receptor (Q5DUB1 whole entry): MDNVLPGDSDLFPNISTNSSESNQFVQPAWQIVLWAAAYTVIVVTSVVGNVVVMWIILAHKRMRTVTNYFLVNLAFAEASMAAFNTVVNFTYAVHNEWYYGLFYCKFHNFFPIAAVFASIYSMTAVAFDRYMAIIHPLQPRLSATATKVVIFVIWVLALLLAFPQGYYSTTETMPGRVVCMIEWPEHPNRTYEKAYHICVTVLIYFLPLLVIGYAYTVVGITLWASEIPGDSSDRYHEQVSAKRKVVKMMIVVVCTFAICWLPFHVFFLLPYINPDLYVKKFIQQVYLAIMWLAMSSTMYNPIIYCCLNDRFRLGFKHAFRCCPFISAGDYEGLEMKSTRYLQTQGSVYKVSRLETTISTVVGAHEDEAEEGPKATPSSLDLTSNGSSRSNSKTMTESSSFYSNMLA
Experimental: (1) Effect on Foot-Tapping
The test compound solution was prepared by dissolving the test compound in a vehicle (a mixture of 50% N,N-dimethylacetamide (Wako Pure Chemical Industries), 30% propylene glycol (Wako Pure Chemical Industries). 4% 2-hydroxypropyl-β-cyclodextrin (Wako Pure Chemical Industries) and 16% distilled water).
(§1) A male gerbil (Japan SLC) was anesthetized with isoflurane, and 0.1 mg/kg of a test compound was administered from the jugular vein. After four hours. GR73632 (5 pmol/5 μl saline), which is an NK1 receptor agonist, was administered into the cerebral ventricle at the part 1 mm lateral to and 4.5 mm below the bregma in the head, under anesthesia with isoflurane. After the administration, the gerbil was moved to an observation cage, and the foot-tapping period during 30 minutes after the recovery of the righting reflex was measured. The foot-tapping inhibition rate (%) of each test compound was calculated by the following equation. Foot-tapping inhibition rate (%)−{1−(Fool-tapping period when test compound was administered)/(Foot-tapping period when solvent was administered)}×100 (2) Measurement of Drug Concentrations
(§2) In the table, Ex. No. means the Example number. Inhibition (%) is the loot-tapping inhibition rate, and Cone. (nM) is the drug concentration in the brain.

human NK1 receptor = human NK1 receptor (Homo sapiens (Human), UniProt P25103); test: Affinity for human NK1 receptor (125I-substance P receptor binding test, membrane fraction); conditions: membrane fraction of human NK1 receptor-expressing 293T cells; read-out: IC50 (nM), concentration required for 50% inhibition of 125I-substance P binding
Chain of human NK1 receptor (P25103 whole entry): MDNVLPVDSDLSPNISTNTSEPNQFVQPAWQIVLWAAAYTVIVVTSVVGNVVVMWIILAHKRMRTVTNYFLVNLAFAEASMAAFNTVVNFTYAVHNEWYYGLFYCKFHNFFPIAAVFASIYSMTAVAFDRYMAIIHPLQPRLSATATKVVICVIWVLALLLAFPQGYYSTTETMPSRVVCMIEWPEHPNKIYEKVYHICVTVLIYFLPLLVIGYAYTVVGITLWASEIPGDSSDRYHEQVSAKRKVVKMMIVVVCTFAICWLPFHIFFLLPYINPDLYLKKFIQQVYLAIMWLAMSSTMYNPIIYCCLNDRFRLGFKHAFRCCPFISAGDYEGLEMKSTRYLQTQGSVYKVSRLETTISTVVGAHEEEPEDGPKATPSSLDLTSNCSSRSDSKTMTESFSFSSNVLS
Experimental: Affinity for Human NK1 Receptor
(3) Measurement of Binding Affinity to Human NK1 Receptor
(3-1) Preparation of Membrane Fraction from Human NK1 Receptor-Expressing Cells
Human NK1 receptor-expressing cells were prepared in a 175 cm^2 culture flask (Nippon Becton Dickinson). The formation of a complex of the human NK1 receptor expression plasmid and Lipofectamine 2000 was performed by calculating the culture area ratio and increasing the scale of the method described in the above 2-4 by the ratio. The human NK1 receptor-expressing cells were collected in a buffer solution for the membrane fraction preparation (50 mM Tris (Wako Pure Chemical), 120 mM sodium chloride (Wako Pure Chemical Industries), 5 mM potassium chloride (Wako Pure Chemical Industries), 1 mM ethylenediaminetetraacetic acid (Sigma), 0.002 mg/mL chymostatin (Peptide Institute), 0.04 mg/bacitracin (Wako Pure Chemical Industries), 0.005 mg/mL phosphoramidon (Peptide Institute) and 0.5 mM phenylmethylsulfonyl fluoride (Wako Pure Chemical Industries), pH7.4) and centrifuged at 1,880 g for 10 minutes, and the cell sediment was suspended in the buffer solution for the membrane fraction preparation. After freezing and thawing the cells once, the cells were homogenized using a Dounce-type homogenizer (cooled on ice, 1000 rpm, 20 times) The homogenized cell suspension was centrifuged at 20,000 rpm for 10 minutes, and the supernatant was removed to obtain cell sediment. The cell sediment was suspended again in the buffer solution for the membrane fraction preparation and homogenized using a Dounce-type homogenizer (cooled on ice, 1000 rpm, 30 times). The cell suspension was centrifuged at 20,000 rpm for 10 minutes, and the supernatant was removed to obtain cell sediment. The same homogenization and centrifugation were repeated again, and final cell sediment was obtained. The final cell sediment was suspended in a buffer solution for the receptor binding test (50 mM Tris (Wako Pure Chemical Industries). 3 mM manganese chloride (Wako Pure Chemical Industries), 0.002 mg/mL chymostatin (Peptide Institute), 0.04 mg/bacitracin (Wako Pure Chemical Industries) and 0.02% bovine serum albumin (Sigma), pH 7.4), and the protein concentration was measured using BCA Protein Assay Kit (Pierce).
(3-2) Receptor Binding Test
The buffer solution for the receptor binding test was dispensed to the wells of a 96-well assay plate (Greiner) at 22.5 μL/well. DMSO solutions of a test compound, which were prepared at an 80-time higher concentration using 100% dimethyl sulfoxide (DMSO), were added to the wells at 2.5 μL/well (final concentrations of 1 nM to 100 nM), and the solutions were mixed. As a radiolabeled ligand, ^125I-substance P (Substance P, [^125I]Tyr^8-, Perkin Elmer) was used. ^125I-substance P was diluted with the buffer solution for the receptor binding test to a concentration resulting in 125 pmol/25 μL/well and added to the 96-well assay plate, and the solutions were mixed. The membrane fraction prepared from the human NK1 receptor-expressing cells was diluted with the buffer solution for the receptor binding test to a concentration resulting in 8 to 10 μg/well, suspended until the suspension became in such a homogenous state that the suspension could flow through a 27G injection needle smoothly and then added to the 96-well assay plate at 150 μL/well. Then, the plate was incubated at room temperature for 60 minutes while shaking the plate. The reaction solutions were suction-filtered through a multiscreen 96-well filter plate (Millipore) which had been pre-treated with 0.3% polyethyleneimine, and the reaction was terminated by washing with a washing solution (50 mM Tris and 0.02% bovine serum albumin, pH 7.4) four times. The bottom of the microplate was dried at 60° C., and then 100 μL/well of MicroScint 20 (PerkinElmer) was dispensed to the wells. The top of the plate was sealed with TopSeal A (PerkinElmer), and the plate was shaken for 5 to 10 minutes. […]

[1] = Measurement of drug concentrations in the brain after foot-tapping; format: in vivo; conditions: male gerbil, 0.1 mg/kg iv, after foot-tapping was finished
Experimental: as §1
After foot-tapping was finished, laparotomy was performed immediately under anesthesia with ether, and a blood sample was taken from the abdominal vena cava. At the same lime, the brain was extracted. Through a quantitative analysis using liquid chromatography-mass spectrometry (LC/MS), the concentrations of the test compound in the plasma and the brain were measured.
as §2

Chain of human CYP3A4 (P08684 whole entry): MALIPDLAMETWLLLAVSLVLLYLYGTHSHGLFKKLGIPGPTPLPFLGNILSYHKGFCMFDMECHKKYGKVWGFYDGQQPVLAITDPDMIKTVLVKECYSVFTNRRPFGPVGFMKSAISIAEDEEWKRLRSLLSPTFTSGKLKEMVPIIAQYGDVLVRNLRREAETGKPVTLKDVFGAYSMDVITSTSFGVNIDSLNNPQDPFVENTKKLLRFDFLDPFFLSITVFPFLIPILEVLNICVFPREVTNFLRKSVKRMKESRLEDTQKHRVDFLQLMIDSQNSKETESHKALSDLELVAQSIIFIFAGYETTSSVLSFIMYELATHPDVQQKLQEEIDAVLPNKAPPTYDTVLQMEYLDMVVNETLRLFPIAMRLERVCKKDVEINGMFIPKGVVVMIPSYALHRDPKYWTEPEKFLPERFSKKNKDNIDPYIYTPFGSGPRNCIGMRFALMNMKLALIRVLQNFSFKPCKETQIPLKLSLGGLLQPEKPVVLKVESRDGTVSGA

Row | Compound | IC50 (human CYP3A4) | Inhibition (%), foot-tapping inhibition rate (NK1 receptor) | IC50 (human NK1 receptor) | Conc. (nM), drug concentration in the brain [1]
1 | Cc1cc(F)ccc1-c1cc([C@H]2CC[C@H](CC(=O)O)CC2)nc(C#N)c1N(C)C(=O)C(C)(C)c1cc(C(F)(F)F)cc(C(F)(F)F)c1 [Example 20, trans-{4-[5-{[2-(3,5-Bistrifluoromethylphenyl)-2-methylpropionyl]methylamino}-6-cyano--4-(4-fluoro-2-methylphenyl)-pyridin-2-yl]cyclohexyl}acetic acid] | 5.5 µM | 100% | 3.27 nM | 92 nM
2 | Cc1cc(F)ccc1-c1cc(C2(C)CCCC(CC(=O)O)C2)ncc1N(C)C(=O)C(C)(C)c1cc(C(F)(F)F)cc(C(F)(F)F)c1 (centres unmarked) [Example 4, {3-[5-{[2-(3,5-Bistrifluoromethylphenyl)-2-methylpropionyl]methylamino}-4-(4-fluoro-2-methylphenyl)pyridin-2-yl]-3-methylcyclohexyl}acetic Acid] | 7.1 µM | 77% | 2.35 nM | 35 nM
3 | Cc1cc(F)ccc1-c1cc(C2CCC3(CC2)CC3C(=O)O)ncc1N(C)C(=O)C(C)(C)c1cc(C(F)(F)F)cc(C(F)(F)F)c1 (centres unmarked) [Example 7, 6-[5-{[2-(3,5-Bistrifluoromethylphenyl)-2-methylpropionyl]methylamino}-4-(4-fluoro-2-methylphenyl)pyridin-2-yl]spiro[2.5]octane-1-carboxylic Acid] | 11 µM | 90% | 1.63 nM | 24 nM
4 | Cc1ccccc1-c1cc(C2CCC(CC(=O)O)CC2)nc(C#N)c1N(C)C(=O)C(C)(C)c1cc(C(F)(F)F)cc(C(F)(F)F)c1 (centres unmarked) [Example 16, [4-(5-{[2-(3,5-Bistrifluoromethylphenyl)-2-methylpropionyl]methylamino}-6-cyano-4-ortho-tolylpyridin-2-yl)cyclohexyl]acetic Acid] | 3.1 µM | 93% | 2.78 nM | 64 nM
5 | Cc1cc(F)ccc1-c1cc(C2CCC(CC(=O)O)CC2)nc(C#N)c1N(C)C(=O)C(C)(C)c1cc(C(F)(F)F)cc(C(F)(F)F)c1 (centres unmarked) [Example 8, {4-[5-{[2-(3,5-Bistrifluoromethylphenyl)-2-methylpropionyl]methylamino}-6-cyano-4-(4-fluoro-2-methylphenyl)pyridin-2-yl]cyclohexyl}acetic Acid] | 6.1 µM | 100% | 4.01 nM | 59 nM
6 | Cc1cc(F)ccc1-c1cc([C@H]2CC[C@H](C(C)(C)C(=O)O)CC2)ncc1N(C)C(=O)C(C)(C)c1cc(C(F)(F)F)cc(C(F)(F)F)c1 [Example 11, trans-2-{4-[5-{[2-(3,5-Bistrifluoromethylphenyl)-2-methylpropionyl]methylamino}-4-(4-fluoro-2-methylphenyl)pyridin-2-yl]cyclohexyl}-2-methylpropionic Acid] | 2.7 µM | 95% | 6.75 nM | 72 nM

Second part, the molecule after the results:

Row | IC50 (human CYP3A4) | Inhibition (%), foot-tapping inhibition rate (NK1 receptor) | IC50 (human NK1 receptor) | Conc. (nM), drug concentration in the brain [1] | Compound
7 | 13 µM | 98% | 1.45 nM | 24 nM | Cc1cc(F)ccc1-c1cc(C2CCC(C(=O)O)CC2)ncc1N(C)C(=O)C(C)(C)c1cc(C(F)(F)F)cc(C(F)(F)F)c1 (centres unmarked) [Example 1, 4-[5-{[2-(3,5-Bistrifluoromethylphenyl)-2-methylpropionyl]methylamino}-4-(4-fluoro-2-methylphenyl)pyridin-2-yl]cyclohexanecarboxylic Acid]
8 | 8.2 µM | 100% | 1.62 nM | 51 nM | Cc1cc(F)ccc1-c1cc([C@H]2CC[C@H](CC(=O)O)CC2)ncc1N(C)C(=O)C(C)(C)c1cc(C(F)(F)F)cc(C(F)(F)F)c1 [Example 13, trans-{4-[5-{[2-(3,5-Bistrifluoromethylphenyl)-2-methylpropionyl]methylamino}-4-(4-fluoro-2-methylphenyl)pyridin-2-yl]cyclohexyl}acetic acid]
9 | 4.2 µM | 100% | 2.36 nM | 92 nM | Cc1cc(F)ccc1-c1cc([C@H]2CC[C@@H](CC(=O)O)CC2)nc(C#N)c1N(C)C(=O)C(C)(C)c1cc(C(F)(F)F)cc(C(F)(F)F)c1 [Example 21, cis-{4-[5-{[2-(3,5-bistrifluoromethylphenyl)-2-methylpropionyl]methylamino}-6-cyano-4-(4-fluoro-2-methylphenyl)pyridin-2-yl]cyclohexyl}acetic acid]
10 | 9.4 µM | 100% | 2.1 nM | 48 nM | Cc1cc(F)ccc1-c1cc(C2CCCC(CC(=O)O)C2)ncc1N(C)C(=O)C(C)(C)c1cc(C(F)(F)F)cc(C(F)(F)F)c1 (centres unmarked) [Example 3, {3-[5-{[2-(3,5-Bistrifluoromethylphenyl)-2-methylpropionyl]methylamino}-4-(4-fluoro-2-methylphenyl)pyridin-2-yl]cyclohexyl}acetic Acid]
11 | 11 µM | 97% | 2.79 nM | 42 nM | Cc1cc(F)ccc1-c1cc(C2CCC(C(C)C(=O)O)CC2)ncc1N(C)C(=O)C(C)(C)c1cc(C(F)(F)F)cc(C(F)(F)F)c1 (centres unmarked) [Example 10, 2-{4-[5-{[2-(3,5-Bistrifluoromethylphenyl)-2-methylpropionyl]methylamino}-4-(4-fluoro-2-methylphenyl)pyridin-2-yl]cyclohexyl}propionic Acid]
